Experimental data from US10881642B2, “Autophagy enhancer and use thereof” (Industry-Academic Cooperation Foundation, Yonsei University, priority 2016, dated 2021).

Test system: HeLa cells
Assay: Acridine orange staining of acidic vesicular organelles
Type: cell-based
Details: 24 hrs
Protocol: FIG. 3A is the graph showing the percentage of nuclear translocated TFEB for which TFEB-GFP HeLa cells were treated with MSL compound for 4 hrs and then nuclei of the cells were stained with DAPI. FIG. 3B is the results of the experiments in which HeLa cells were incubated in the presence of MSL compound or vehicle control for 24 hrs and then the acidic vesicular organelles formed were stained with acridine orange. FIG. 3C is the results of the experiments in which TFEB-GFP HeLa cells were treated with MSL compound or vehicle control for 4 hrs and then the cells were immunoblotted with the antibodies indicated. […]
Screening of autophagy enhancer. […] Firefly luciferase was determined after mixing 5 μl of lysate with 25 μl of Luciferase Assay Reagent II. Renilla luciferase was then determined after further addition of 20 ul of Stop&Glo Reagent. […] Cytotoxicity was determined by the measurement of LDH release in cell culture media using the LDH kit (Roche), according to the protocol from the manufacturer. […] Imaging and image quantification. […] Formation of acidic vesicular organelles was quantitated by staining the cells with acridine orange (Invitrogen, 5 ug/ml, 10 min). […] Cells or tissues were solubilized in lysis buffer supplemented with protease and phosphatase inhibitors and protein concentration was measured by the Bradford method. […] Protein levels were quantified by using ImageJ software analysis. […]

CSc1oc(-c2ccccc2)nc1S(=O)(=O)c1ccc(F)cc1 [MSL]
red fluorescence after acridine orange staining (lysosomal acidification and content): significantly increased
